Values quoted from earlier work in US10300042B2, “Apremilast for the treatment of a liver disease or a liver function abnormality” (Celgene Corporation, priority 2014, dated 2019).

Test system: alanine aminotransferase and/or aspartate aminotransferase
Settings: animal models and human studies; cited from earlier work

Structure (SMILES): CC(=O)CCCCn1c(=O)c2c(ncn2C)n(C)c1=O [Pentoxifylline]
- Liver Function Tests abnormalities (ALT, AST levels): decreasing levels of alanine aminotransferase and/or aspartate aminotransferase
